Test results taken from patent publication US10544149B2, “Bicyclic alkyne derivatives and uses thereof” (Agency for Science, Technology and Research, priority 2013, dated 2020).

Legend:
[1] = test system: eIF4e phosphorylation in Hela cell line; test: eIF4e phosphorylation inhibition in Hela cell line; assay type: cell-based; settings: Homo sapiens, cellular
[2] = target: MNK2 (Homo sapiens, UniProt Q9HBH9); test: MNK2 enzymatic assay; assay type: biochemical
[3] = target: MNK1 (Homo sapiens, UniProt Q9BUB5); test: MNK1 enzymatic assay; assay type: biochemical
Chain of MNK1 (Q9BUB5 whole entry): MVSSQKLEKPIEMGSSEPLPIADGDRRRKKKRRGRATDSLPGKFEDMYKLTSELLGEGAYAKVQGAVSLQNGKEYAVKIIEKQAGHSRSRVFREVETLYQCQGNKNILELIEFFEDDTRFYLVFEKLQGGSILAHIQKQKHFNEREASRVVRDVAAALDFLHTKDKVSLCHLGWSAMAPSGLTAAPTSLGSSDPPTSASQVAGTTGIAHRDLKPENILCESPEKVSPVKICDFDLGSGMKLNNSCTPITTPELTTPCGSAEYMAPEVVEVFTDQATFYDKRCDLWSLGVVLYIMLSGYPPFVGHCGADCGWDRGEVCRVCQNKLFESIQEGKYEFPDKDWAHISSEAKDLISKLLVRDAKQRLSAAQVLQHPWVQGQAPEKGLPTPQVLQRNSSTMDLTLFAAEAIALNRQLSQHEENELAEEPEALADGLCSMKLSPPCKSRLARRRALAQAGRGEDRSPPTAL

Chain of MNK2 (Q9HBH9 whole entry): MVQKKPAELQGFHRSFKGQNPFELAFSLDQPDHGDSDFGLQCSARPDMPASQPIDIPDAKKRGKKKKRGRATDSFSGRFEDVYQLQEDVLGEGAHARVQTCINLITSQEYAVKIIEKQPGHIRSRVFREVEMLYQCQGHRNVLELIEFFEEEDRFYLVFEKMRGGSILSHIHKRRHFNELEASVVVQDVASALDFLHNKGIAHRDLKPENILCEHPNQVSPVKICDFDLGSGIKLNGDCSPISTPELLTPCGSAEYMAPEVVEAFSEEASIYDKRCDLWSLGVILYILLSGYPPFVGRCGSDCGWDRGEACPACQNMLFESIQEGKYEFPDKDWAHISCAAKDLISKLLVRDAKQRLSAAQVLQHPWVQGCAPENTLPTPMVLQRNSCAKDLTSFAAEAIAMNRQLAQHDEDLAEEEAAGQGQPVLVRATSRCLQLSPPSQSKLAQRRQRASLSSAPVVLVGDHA

SMILES	IC50 [1]	IC50 [2]	IC50 [3]
Cc1ccccc1C#Cc1cnc2ccc(-c3ccc(C(=O)N4CCN(C)CC4)cc3)nn12 [Example 001, (4-methylpiperazin-1-yl)(4-(3-(o-tolylethynyl)imidazo[1,2-b]pyridazin-6-yl)phenyl)methanone]	< 5 µM	< 0.5 µM	< 0.5 µM
CN1CCN(C(=O)c2ccc(-c3ccc4ncc(C#Cc5ccccc5)n4n3)cc2)CC1 [Example 002, (4-methylpiperazin-1-yl) (4-(3-(phenylethynyl)imidazo[1,2-b]pyridazin-6-yl)phenyl)methanone]	< 5 µM	< 0.5 µM	< 0.5 µM
CN1CCN(C(=O)c2ccc(-c3ccc4ncc(C#Cc5ccncc5)n4n3)cc2)CC1 [Example 005, (4-methylpiperazin-1-yl) (4-(3-(pyridin-4-ylethynyl)imidazo[1,2-b]pyridazin-6-yl)phenyl)methanone]	< 5 µM	< 0.5 µM	< 0.5 µM
O=C(c1ccc(-c2ccc3ncc(C#Cc4ccnc5[nH]ncc45)n3n2)cc1)N1CCOCC1 [Example 016, (4-(3-((1H-pyrazolo[3,4-b]pyridin-4-yl)ethynyl)imidazo[1,2-b]pyridazin-6-yl)phenyl) (morpholino)methanone]	< 5 µM	< 0.5 µM	< 0.5 µM
Nc1cc(C#Cc2cnc3ccc(-c4ccc(C(=O)N5CCOCC5)cc4)nn23)c2cc[nH]c2n1 [Example 017, (4-(3-((6-amino-1H-pyrrolo[2,3-b]pyridin-4-yl)ethynyl)imidazo[1,2-b]pyridazin-6-yl)phenyl)(morpholino)methanone]	< 5 µM	< 0.5 µM	< 0.5 µM
Cc1ccncc1C#Cc1cnc2ccc(-c3ccc(C(=O)N4CCOCC4)cc3)nn12 [Example 022]	< 5 µM	< 0.5 µM	< 0.5 µM
O=C(c1ccc(-c2ccc3ncc(C#Cc4c[nH]c5ncccc45)n3n2)cc1)N1CCOCC1 [Example 024, (4-(3-((1H-pyrrolo[2,3-b]pyridin-3-yl)ethynyl)imidazo[1,2-b]pyridazin-6-yl)phenyl) (morpholino)methanone]	< 5 µM	< 0.5 µM	< 0.5 µM
O=C(c1ccc(-c2ccc3ncc(C#Cc4cn[nH]c4)n3n2)cc1)N1CCOCC1 [Example 028, (4-(3-((1H-pyrazol-4-yl)ethynyl)imidazo[1,2-b]pyridazin-6-yl)phenyl)(morpholino)methanone]	< 5 µM	< 0.5 µM	< 0.5 µM
O=C(c1ccc(-c2ccc3ncc(C#Cc4c(C(F)(F)F)cnc5[nH]ccc45)n3n2)cc1)N1CCOCC1 [Example 031, morpholino(4-(3-((5-(trifluoromethyl)-1H-pyrrolo[2,3-b]pyridin-4-yl)ethynyl)imidazo[1,2-b]pyridazin-6-yl)phenyl)methanone]	< 5 µM	< 0.5 µM	< 0.5 µM
O=C(c1ccc(-c2ccc3ncc(C#Cc4ccnc5[nH]ccc45)n3n2)cc1)N1CCOCC1 [Example 033, (4-(3-((1H-pyrrolo[2,3-b]pyridin-4-yl)ethynyl)imidazo[1,2-b]pyridazin-6-yl)phenyl) (morpholino)methanone]	< 5 µM	< 0.5 µM	< 0.5 µM
Cn1ccc2c(C#Cc3cnc4ccc(-c5ccc(C(=O)N6CCOCC6)cc5)nn34)ccnc21 [Example 035, (4-(3-((1-methyl-1H-pyrrolo[2,3-b]pyridin-4-yl)ethynyl)imidazo[1,2-b]pyridazin-6-yl)phenyl)(morpholino) methanone]	< 5 µM	< 0.5 µM	< 0.5 µM
O=C(c1ccc(-c2ccc3ncc(C#Cc4ccnc5[nH]ccc45)n3n2)cc1)N1CCNCC1 [Example 045, (4-(3-((1H-pyrrolo[2,3-b]pyridin-4-yl)ethynyl)imidazo[1,2-b]pyridazin-6-yl)phenyl)(piperazin-1-yl) methanone]	< 5 µM	< 0.5 µM	< 0.5 µM
Nc1cc(C#Cc2cnc3ccc(-c4ccc(C(=O)N5CCNCC5)cc4)nn23)ccn1 [Example 046, (4-(3-((2-aminopyridin-4-yl)ethynyl)imidazo[1,2-b]pyridazin-6-yl)phenyl)(piperazin-1-yl)methanone]	< 5 µM	< 0.5 µM	< 0.5 µM
O=C(c1ccc(-c2ccc3ncc(C#Cc4ccnc(Nc5ccccn5)c4)n3n2)cc1)N1CCOCC1 [Example 048, morpholino(4-(3-((2-(pyridin-2-ylamino)pyridin-4-yl)ethynyl)imidazo[1,2-b]pyridazin-6-yl)phenyl)methanone]	< 5 µM	< 0.5 µM	< 0.5 µM

Second part, the compound after the results:

IC50 [1]	IC50 [2]	IC50 [3]	SMILES
< 5 µM	< 0.5 µM	< 0.5 µM	CC(=O)Nc1cccc(C#Cc2cnc3ccc(-c4ccc(C(=O)N5CCN(C)CC5)cc4)nn23)c1 [Example 008, N-(3-((6-(4-(4-methylpiperazine-1-carbonyl)phenyl)imidazo[1,2-b]pyridazin-3-yl)ethynyl)phenyl)acetamide]
< 5 µM	< 0.5 µM	< 0.5 µM	O=C(c1ccc(-c2ccc3ncc(C#Cc4cccnc4)n3n2)cc1)N1CCOCC1 [Example 010, morpholino(4-(3-(pyridin-3-ylethynyl)imidazo[1,2-b]pyridazin-6-yl)phenyl)methanone]
< 5 µM	< 0.5 µM	< 0.5 µM	CS(=O)(=O)Nc1cccc(C#Cc2cnc3ccc(-c4ccc(C(=O)N5CCOCC5)cc4)nn23)c1 [Example 011, N-(3-((6-(4-(morpholine-4-carbonyl)phenyl)imidazo[1,2-b]pyridazin-3-yl)ethynyl)phenyl)methane sulfonamide]
< 5 µM	< 0.5 µM	< 0.5 µM	CC(=O)Nc1cccc(C#Cc2cnc3ccc(-c4ccc(C(=O)N5CCOCC5)cc4)nn23)c1 [Example 013, N-(3-((6-(4-(morpholine-4-carbonyl)phenyl)imidazo[1,2-b]pyridazin-3-yl)ethynyl)phenyl)acetamide]
< 5 µM	< 0.5 µM	< 0.5 µM	COc1cc(C#Cc2cnc3ccc(-c4ccc(C(=O)N5CCOCC5)cc4)nn23)ccn1 [Example 019, (4-(3-((2-methoxypyridin-4-yl)ethynyl)imidazo[1,2-b]pyridazin-6-yl)phenyl) (morpholino)methanone]
< 5 µM	< 0.5 µM	< 0.5 µM	O=C(c1ccc(-c2ccc3ncc(C#Cc4cnc5cc[nH]c5c4)n3n2)cc1)N1CCOCC1 [Example 020, (4-(3-((1H-pyrrolo[3,2-b]pyridin-6-yl)ethynyl)imidazo[1,2-b]pyridazin-6-yl)phenyl) (morpholino)methanone]
< 5 µM	< 0.5 µM	< 0.5 µM	O=C(c1ccc(-c2ccc3ncc(C#Cc4cnc5[nH]ccc5c4)n3n2)cc1)N1CCOCC1 [Example 023, (4-(3-((1H-pyrrolo[2,3-b]pyridin-5-yl)ethynyl)imidazo[1,2-b]pyridazin-6-yl)phenyl) (morpholino)methanone]
< 5 µM	< 0.5 µM	< 0.5 µM	O=C(c1ccc(-c2ccc3ncc(C#Cc4ccc5[nH]cnc5c4)n3n2)cc1)N1CCOCC1 [Example 027, (4-(3-((1H-benzo[d]imidazol-5-yl)ethynyl)imidazo[1,2-b]pyridazin-6-yl)phenyl)(morpholino)methanone]
< 5 µM	< 0.5 µM	< 0.5 µM	O=C(c1ccc(-c2ccc3ncc(C#Cc4ccncc4)n3n2)cc1)N1CCOCC1 [Example 032]
< 5 µM	< 0.5 µM	< 0.5 µM	Nc1cc(C#Cc2cnc3ccc(-c4ccc(C(=O)N5CCOCC5)cc4)nn23)ccn1 [Example 034, (4-(3-((2-aminopyridin-4-yl)ethynyl)imidazo[1,2-b]pyridazin-6-yl)phenyl) (morpholino)methanone]
< 5 µM	< 0.5 µM	< 0.5 µM	CC(=O)Nc1cc(C#Cc2cnc3ccc(-c4ccc(C(=O)N5CCOCC5)cc4)nn23)ccn1 [Example 037, N-(4-((6-(4-(morpholine-4-carbonyl)phenyl)imidazo[1,2-b]pyridazin-3-yl)ethynyl)pyridin-2-yl)acetamide]
< 5 µM	< 0.5 µM	< 0.5 µM	O=C(c1ccc(-c2ccc3ncc(C#Cc4ccc(O)nc4)n3n2)cc1)N1CCOCC1 [Example 040, (4-(3-((6-hydroxypyridin-3-yl)ethynyl)imidazo[1,2-b]pyridazin-6-yl)phenyl) (morpholino)methanone]
< 5 µM	< 0.5 µM	< 0.5 µM	O=C(CCl)Nc1cc(C#Cc2cnc3ccc(-c4ccc(C(=O)N5CCOCC5)cc4)nn23)ccn1 [Example 043]
< 5 µM	< 0.5 µM	< 0.5 µM	CNCC(=O)Nc1cc(C#Cc2cnc3ccc(-c4ccc(C(=O)N5CCOCC5)cc4)nn23)ccn1 [Example 044, 2-(methylamino)-N-(4-((6-(4-(morpholine-4-carbonyl)phenyl)imidazo[1,2-b]pyridazin-3-yl)ethynyl)pyridin-2-yl)acetamide]
< 5 µM	< 0.5 µM	< 0.5 µM	Cc1ncccc1Nc1cc(C#Cc2cnc3ccc(-c4ccc(C(=O)N5CCOCC5)cc4)nn23)ccn1 [Example 047, (4-(3-((2-((2-methylpyridin-3-yl)amino)pyridin-4-yl)ethynyl)imidazo[1,2-b]pyridazin-6-yl)phenyl) (morpholino)methanone]
< 5 µM	< 0.5 µM	< 0.5 µM	O=C(c1ccc(-c2ccc3ncc(C#Cc4ccnc(Nc5cccnc5)c4)n3n2)cc1)N1CCOCC1 [Example 049, morpholino(4-(3-((2-(pyridin-3-ylamino)pyridin-4-yl)ethynyl)imidazo[1,2-b]pyridazin-6 yl)phenyl)methanone]
< 5 µM	< 0.5 µM	< 0.5 µM	O=C(c1ccc(-c2ccc3ncc(C#Cc4ccnc(Nc5ccccc5)c4)n3n2)cc1)N1CCOCC1 [Example 051, morpholino(4-(3-((2-(phenylamino)pyridin-4-yl)ethynyl)imidazo[1,2-b]pyridazin-6-yl)phenyl)methanone]
